Laboratory results published in PMC10096175, “An In Vitro Antimicrobial, Anticancer and Antioxidant Activity of N–[(2–Arylmethylthio)phenylsulfonyl]cinnamamide Derivatives” (Molecules, 2023).
In brackets after ≈: the same amount, converted by molar mass. Like-named read-outs stand apart in the source and are kept apart here. Each block holds one compound with its values, some of them ahead of it.

What was measured:
E. hirae ATCC 10541 = assay: MIC determination, reference strain (microdilution); assay type: cell-based; conditions: Enterococcus hirae, ATCC10541
MCF-7 cells = assay: MTT assay; assay type: cell-based, human; conditions: for IC50: Homo sapiens
B. subtilis ATCC 6633 = assay: MIC determination, reference strain (microdilution); assay type: cell-based; conditions: Bacillus subtilis, ATCC6633
[1] = system: S. epidermidis ATCC 14990; assay: Blood bacteriostatic activity test in sheep blood; assay type: cell-based, Staphylococcus epidermidis; conditions: 24 h, 37 °C, t0 1.70 × 10^7, control t24 5.10 × 10^8
Procedure: (§1) The manifestation of the bactericidal properties of chemical compounds is low minimum bactericidal concentration (MBC) values, which allows many groups of researchers to check the killing rate over time (time killing tests). It is an important element in determining the strength and speed of action of a compound on bacteria. Such studies are usually carried out in bacterial media, without additional factors influencing the results.
(§2) This step was carried out on two types of bacteria, S. aureus ATCC 6538 (Figure 8 and Table 2) and S. epidermidis ATCC 14 990 (Figure 9 and Table 3).
(§3) The number of bacteria at the initial time (t0) was 1.30 × 10^8 CFU/mL for S. aureus and 1.70 × 10^7 CFU/mL for S. epidermidis. Live bacterial cells were assayed after 24 h of incubation at 37 °C. […] Bacterial controls without compounds grew unhindered and after 24 h (t24) were 2.28 × 10^9 for S. aureus and 5.10 × 10^8 CFU/mL for S. epidermidis. […] It can be assumed that the tested compounds were not related to any fraction of the blood. Attention should be paid to the S. epidermidis tests and the difference between the number of bacteria at t0 and after 24 h of incubation for each compound. The number of bacteria at t0 was 1.70 × 10^7 CFU/mL and after 24 h it decreased to, e.g., 9.40 × 10^6 CFU/mL for compounds 16e and 7.80 × 10^6 CFU/mL for compound 17c. It can be assumed that the tested compounds after being added to blood samples prevented bacteria from multiplying. However, under these conditions, the phagocytic cells take up the bacteria. […] This can be explained by much greater variety of mechanisms of action of S. aureus against phagocytic cells than of S. epidermidis. This can be integrated with the bacterial cell compounds, e.g., protein A, as well as enzymes that bacteria can secrete outside the cell, e.g., coagulase and staphylokinase. Additional studies should be conducted to check how the tested compounds affect the enzymes secreted by S. aureus.
(§4) The assay was performed as previously described by with a modification. Pure sheep blood was used for the research. Two strains of bacteria S. aureus ATCC 6538 and S. epidermidis ATCC 14990 were used with an inoculum density of approximately 10^8 CFU/mL at 0 time. The final concentration of the compounds was 0.5, 1, 2, 4, and 8 µg/mL, and the final volume of the assay tube was 1 mL. Bacterial survivors were determined on MH agar plates (CFU/mL) at 24 h after exposure.

C. albicans ATCC 10231 = assay: MIC determination, reference fungal strain (microdilution); assay type: cell-based; conditions: Candida albicans, ATCC10231
HeLa cells = assay: MTT assay; assay type: cell-based, human; conditions: for IC50: Homo sapiens, HeLa, 24 h
ABTS assay = conditions: ABTS radical scavenging; 10 min, 30 °C
Procedure: The ABTS assay was performed spectrophotometrically. […] ABTS solution with methanol/DMSO (9/1 v/v) was used as a control. After 10 min of incubation at 30 °C in the dark, the absorbance was analyzed at λ = 750 nm by a 96-well microplate reader (Epoch, BioTek System, Santa Clara, CA, USA). Ascorbic acid was used as a standard.
ABTS inhibition was calculated by the following equation:ABTS Inhibition (%) = [Acontrol − Asample)/Acontrol] × 100%
(§5) IC50 values of the samples were calculated using program GraFit v. 7.0 (Erithacus Software). The analysis was performed three times, with tree replications in each (n = 9). Statistical analysis was performed with one-way ANOVA with Tuckey’s post-hoc test.

DPPH assay = conditions: DPPH radical scavenging; 40 min, room temperature
Procedure: The DPPH assay was performed spectrophotometrically. The amount of 30 µL of different concentrations of samples, dissolved in methanol/DMSO (9/1 v/v), was mixed with 170 µL of 0.06 mM DPPH methanolic solution and completed with methanol to a final volume of 300 µL. DPPH methanolic solution with methanol/DMSO (9/1 v/v) was used as a control. After 40 min of incubation at room temperature in the dark, the absorbance was analyzed at λ = 510 nm by a 96-well microplate reader (Epoch, BioTek System, Santa Clara, CA, USA). Ascorbic acid was used as a standard.
DPPH inhibition was calculated by the following equation:DPPH Inhibition (%) = [Acontrol − Asample)/Acontrol] × 100%
as §5

S. aureus ATCC 6538 [2] = assay: MIC determination, reference strain (microdilution); assay type: cell-based; conditions: Staphylococcus aureus, ATCC6538
E. coli ATCC 8739 = assay: as above; assay type: cell-based; conditions: Escherichia coli, ATCC8739
in vitro = conditions: sheep, pH 7
C. diphtheriae = assay: MIC determination, reference strain (microdilution); assay type: cell-based; conditions: Corynebacterium diphtheriae
[3] = system: S. epidermidis ATCC 14990; assay: as above; assay type: cell-based; conditions: Staphylococcus epidermidis, ATCC14990
E. faecalis ATCC 51299 = assay: as above; assay type: cell-based; conditions: Enterococcus faecalis, ATCC51299
SKOV-3 cells = assay: MTT assay; assay type: cell-based, human; conditions: for IC50: Homo sapiens
S. aureus ATCC 6538 [4] = assay: Blood bacteriostatic activity test in sheep blood; assay type: cell-based, Staphylococcus aureus; conditions: 24 h, 37 °C, t0 1.30 × 10^8, control t24 2.28 × 10^9
Procedure: as §1, §2, §3, §4

HEK-293 cells = assay: MTT assay, noncancerous cells; assay type: cell-based; conditions: Homo sapiens
[5] = system: quorum sensing system of C. violaceum; parameters: method as in doi:10.1016/j.ibiod.2018.06.003; conditions: cited from earlier work
[6] = system: cancer cells (HeLa, SKOV-3, MCF-7); assay: MTT assay, summary statements on the cancer cells; assay type: cell-based; conditions: Homo sapiens, cell line not specified, MTT
[7] = C. albicans ATCC 10231, read-out: MIC
[8] = MCF7, MCF-7, MTT, 24 h treatment, read-out: IC50
[9] = MTT, 24 h treatment, read-out: IC50
[10] = SK-OV-3, SKOV-3, MTT, 24 h treatment, read-out: IC50

Compound: Cc1cc(S(=O)(=O)NC(=O)C=Cc2ccccc2)c(SCc2cccc3ccccc23)cc1Cl [Compound 16a, N–[4–Chloro–5–methyl–2–(naphthalen–1–ylmethylthio)benzenesulfonyl]cinnamamide]
MIC (E. hirae ATCC 10541): 4 ± 0.15 µg/mL (≈ 7.87 µM) | IC50 (MCF-7 cells; MCF7, 24 h): 14.3 ± 0.28 µg/mL (≈ 28.2 µM) | MIC (B. subtilis ATCC 6633): 62.5 ± 0.29 µg/mL (≈ 123 µM) | Number of viable cells of Staphylococcus epidermidis ([1]; 1 µg/mL): 3.00 × 10^6 CFU/mL | Number of viable cells of Staphylococcus epidermidis ([1]; 2 µg/mL): 4.00 × 10^6 CFU/mL | Number of viable cells of Staphylococcus epidermidis ([1]; 4 µg/mL): 1.10 × 10^6 CFU/mL | Number of viable cells of Staphylococcus epidermidis ([1]; 8 µg/mL): 2.50 × 10^6 CFU/mL | MIC (C. albicans ATCC 10231): > 125 µg/mL | IC50 (HeLa cells): 13.7 ± 1.12 µg/mL (≈ 27 µM) | IC50 ABTS (ABTS assay): 717.99 ± 1.01 µg/mL (≈ 1410 µM) | IC50 DPPH (DPPH assay): 1048.33 ± 0.48 µg/mL (≈ 2060 µM) | MIC (S. aureus ATCC 6538 [2]): 1 ± 0.29 µg/mL (≈ 1.97 µM) | MIC (E. coli ATCC 8739): > 125 µg/mL | hemolysis at 24 h, 125 µg/mL (in vitro): 43% | MIC (C. diphtheriae): 62.5 ± 0.29 µg/mL (≈ 123 µM) | MIC [3]: 2 ± 0.58 µg/mL (≈ 3.94 µM) | MIC (E. faecalis ATCC 51299): 2 ± 0.58 µg/mL (≈ 3.94 µM) | IC50 (SKOV-3 cells; SK-OV-3, 24 h): 11.8 ± 0.8 µg/mL (≈ 23.3 µM) | Number of viable cells of Staphylococcus aureus (S. aureus ATCC 6538 [4]; 1 µg/mL): 1.23 × 10^8 CFU/mL | Number of viable cells of Staphylococcus aureus (S. aureus ATCC 6538 [4]; 2 µg/mL): 7.50 × 10^8 CFU/mL | Number of viable cells of Staphylococcus aureus (S. aureus ATCC 6538 [4]; 4 µg/mL): 8.10 × 10^8 CFU/mL | Number of viable cells of Staphylococcus aureus (S. aureus ATCC 6538 [4]; 8 µg/mL): 1.29 × 10^8 CFU/mL | IC50 (HEK-293 cells; HEK293, 24 h): 13.6 ± 0.19 µg/mL (≈ 26.7 µM)

Compound: C=CCOC(=O)C=Cc1ccccc1 [allyl cinnamate]
Quorum sensing inhibition ([5]; at 1 mM): completely inhibit

MIC (C. albicans ATCC 10231; [7]): > 125 µg/mL
Compound: CC(=O)N1CCN(c2ccc(OCC3COC(Cn4ccnc4)(c4ccc(Cl)cc4Cl)O3)cc2)CC1 (centres unmarked) [Ketoconazole, reference compound]

Compound: O=C(O)/C=C/c1ccccc1 [cinnamic acid]
Quorum sensing inhibition ([5]; at 5 mM): completely inhibit

Compound: OCC=Cc1ccccc1 [cinnamyl alcohol]
Quorum sensing inhibition ([5]; at 1 mM): completely inhibit

IC50 ABTS (ABTS assay): 18.99 ± 0.03 µg/mL (≈ 108 µM) | IC50 DPPH (DPPH assay): 10.78 ± 0.11 µg/mL (≈ 61.2 µM)
Compound: O=C1O[C@H]([C@@H](O)CO)C(O)=C1O [Ascorbic acid, ascorbic acid, reference compound]

Compound: O=C(O)C=Cc1ccc([N+](=O)[O-])cc1 [4–nitrocinnamic acid]
Quorum sensing inhibition ([5]; at 5 mM): completely inhibit

Compound: O=C(O)C=Cc1ccc(Cl)cc1 [4–chlorocinnamic acid]
Quorum sensing inhibition ([5]; at 5 mM): completely inhibit

Compound: CC(=Cc1ccccc1)C(=O)O [α–methylcinnamic acid]
Quorum sensing inhibition ([5]; at 5 mM): completely inhibit

MIC (E. hirae ATCC 10541; E. hirae ATCC 10541, Co-trimoxazole as sulfamethoxazole/trimethoprim, read-out: MIC): 4 ± 0.15 µg/mL (≈ 7.23 µM) | IC50 (MCF-7 cells; [8]): 93.5 ± 4.71 µg/mL (≈ 169 µM) | MIC (B. subtilis ATCC 6633; B. subtilis ATCC 6633, Co-trimoxazole as sulfamethoxazole/trimethoprim, read-out: MIC): 62.5 ± 0.29 µg/mL (≈ 113 µM) | MIC (C. albicans ATCC 10231; [7]): > 125 µg/mL | IC50 (HeLa cells; [9]): 62.8 ± 3.75 µg/mL (≈ 114 µM) | IC50 ABTS (ABTS assay): 597.53 ± 1.3 µg/mL (≈ 1080 µM) | IC50 [6]: > 60 µg/mL | IC50 DPPH (DPPH assay): 310.50 ± 0.73 µg/mL (≈ 561 µM) | MIC (S. aureus ATCC 6538 [2]; S. aureus ATCC 6538, ± SD, Co-trimoxazole as sulfamethoxazole/trimethoprim, read-out: MIC): 1 ± 0.29 µg/mL (≈ 1.81 µM) | MIC (E. coli ATCC 8739; E. coli ATCC 8739, Co-trimoxazole as sulfamethoxazole/trimethoprim, read-out: MIC): > 125 µg/mL | MIC (C. diphtheriae; C. diphtheriae, Co-trimoxazole as sulfamethoxazole/trimethoprim, read-out: MIC): 62.5 ± 0.29 µg/mL (≈ 113 µM) | MIC ([3]; S. epidermidis ATCC 14990, Co-trimoxazole as sulfamethoxazole/trimethoprim, read-out: MIC): 2 ± 0.58 µg/mL (≈ 3.62 µM) | MIC (E. faecalis ATCC 51299; E. faecalis ATCC 51299, Co-trimoxazole as sulfamethoxazole/trimethoprim, read-out: MIC): 4 ± 0.15 µg/mL (≈ 7.23 µM) | IC50 (SKOV-3 cells; [10]): 70.53 ± 0.21 µg/mL (≈ 128 µM)
Compound: Cc1cc(S(=O)(=O)NC(=O)/C=C/c2ccc([N+](=O)[O-])cc2)c(SCc2cccc3ccccc23)cc1Cl [Compound 16f, (E)–N–{4–Chloro–5–methyl–2–[(naphthalen–1–yl)methylthio]phenylsulfonyl}–3–(4–nitrophenyl)acrylamide]
Selectivity index (SI) (MCF-7 cells; IC50 HEK-293 / IC50 MCF-7): 1.0 | Selectivity index (SI) (HeLa cells; IC50 HEK-293 / IC50 HeLa): 1.5 | hemolysis at 24 h, 31.25 µg/mL (in vitro; defibrinated sheep blood diluted 1:9 v/v with PBS): 12 to 20% | Selectivity index (SI) (SKOV-3 cells; IC50 HEK-293 / IC50 SKOV-3): 1.3 | IC50 (HEK-293 cells; HEK293, HEK-293, MTT, 24 h treatment, read-out: IC50): 94.5 ± 4.7 µg/mL (≈ 171 µM)

Compound: O=C(O)C=Cc1ccc2c(c1)OCO2 [3,4–(methylenedioxy)cinnamic acid]
Quorum sensing inhibition ([5]; at 5 mM): completely inhibit

Compound: NC(=O)C=Cc1ccccc1 [cinnamamide]
Quorum sensing inhibition ([5]; at 5 mM): completely inhibit

IC50 (MCF-7 cells; [8]): 0.007 ± 0.0008 µg/mL | IC50 (HeLa cells; [9]): 0.005 ± 0.0004 µg/mL | IC50 (SKOV-3 cells; [10]): 0.008 ± 0.0003 µg/mL
Compound: CC[C@]1(O)C[C@@H]2CN(CCc3c([nH]c4ccccc34)[C@@](C(=O)OC)(c3cc4c(cc3OC)N(C)[C@H]3[C@@](O)(C(=O)OC)[C@H](OC(C)=O)[C@]5(CC)C=CCN6CC[C@]43[C@@H]65)C2)C1 [V. sulphate, Vinblastine sulphate, reference compound]
